Read-outs that look alike come from different tables or passages of the source.
Legend:
BVDV [1] = experiment: Antiviral activity against BVDV by passaging virus in BT cells (CPE and viral titer); assay type: cell-based, bovine viral diarrhea virus; conditions: for viral replication: after a single passage
Protocol: (§1) Cytotoxicity was assayed using graded amounts of nucleoside analog in CV-1 cells or BT cells. 100 pfu of virus was inoculated in 10^5 CV-1 cells (MV) or BT cells (BVDV). Antiviral activity against MV or BVDV (an HCV surrogate) was tested by passaging the virus in the presence or absence of analog.
(§2) In screening experiments, replication of MV or BVDV was assessed by cytopathic effect (CPE) and viral titer after growth in cells for three to four days in the presence or absence of drug. […] Experiments were performed in triplicate (see FIGS. 2 and 4).

BVDV [2] = experiment: Sequencing of BVDV glycoprotein fragment for viral mutagenesis; assay type: cell-based, bovine viral diarrhea virus; conditions: 2 mM, passage 1, BVDV glycoprotein fragment, vs DMSO control
Protocol: Fragment of 1 kb glycoprotein gene of clones BVDV at passage 1, BVDV treated with 2 mM 5-formyl-uridine vs. DMSO control.
(§3) For 5-formyl-uridine, sequencing was performed to confirm that viral extinction was due to viral mutagenesis by the nucleoside. Clones of MV were selected from treated and control virus at passage 4 and a 1 kb fragment of the matrix and a 1.7 kb fragment of the polymerase were sequenced. […] A fragment of the BVDV glycoprotein was also sequenced, in which the BVDV virus was treated with 2 mM 5-formyl-uridine.

measles virus (MV) [3] = experiment: Sequencing of MV clones (matrix and polymerase fragments) for viral mutagenesis; assay type: cell-based; conditions: 0.15 mM, passage 4, 1 kb matrix and 1.7 kb polymerase fragments, vs DMSO control
Protocol: Fragment of 1 kb of matrix gene and 1.7 kb of polymerase of cones MV at passage 4, MV treated with 0.15 mM 5-formyl uridine vs. DMSO control.
as §3

measles virus (MV) [4] = experiment: Antiviral activity against MV by passaging virus in CV-1 cells (CPE and viral titer); assay type: cell-based
Protocol: as §1, §2

CV-1 cells or BT cells = experiment: Cytotoxicity with graded amounts of nucleoside analog; assay type: cell-based; conditions: Cercopithecidae, cell line (CV-1 or BT) not specified
Protocol: as §1

[5] = Bovine viral diarrhea virus isolates and strains
[6] = concentration of 0.5 mM, within one passage

Structure (SMILES) | viral replication (BVDV [1]; BVDV) | EC50 (BVDV [1]; BVDV, read-out: EC50) [µM] | EC50 (BVDV [1]; [5]) [µM] | EC90 (BVDV [1]; [5]) [µM] | inhibition of BVDV replication (BVDV [1]; [6]) | increase in mutation (BVDV [2]) [fold] | mutation rate above the spontaneous mutation rate of MV (measles virus (MV) [3]) [fold] | EC50 (measles virus (MV) [4]; Measles morbillivirus, CV-1) [µM] | EC90 (measles virus (MV) [4]; Measles morbillivirus, CV-1) [µM] | inhibition of MV replication (measles virus (MV) [4]; [6]) | IC50 (CV-1 cells or BT cells) [µM]
Nc1nc(N)c2ncn([C@@H]3O[C@H](CO)[C@@H](O)[C@H]3O)c2n1 [2,6 diaminopurine riboside] | inhibited | 70 | – | – | – | – | – | – | – | – | –
O=Cc1cn([C@@H]2O[C@H](CO)[C@@H](O)[C@H]2O)c(=O)[nH]c1=O [5-formyl-uridine] | – | – | 150 | 400 | completely inhibited | 3.75 | 1.6 | 150 | 300 | completely inhibited | > 1000
Nc1[nH]c(=O)nc2c1ncn2[C@@H]1O[C@H](CO)[C@@H](O)[C@H]1O [isoguanosine] | inhibited | – | 80 | – | – | – | – | – | – | – | –

From patent US7648967B2, “Mutagenic nucleoside analogs for the treatment of viral disease” (priority 2001, dated 2010)
